Tested on: MV-4-11 cells
Experiment: MV-4-11 cell proliferation assay (CellTiter-Glo 2.0)
Assay type: cell-based
Settings: Homo sapiens, MV4-11; MV-4-11, 384-well, 11-dose dilution series; read-out: IC50, inhibition of MV-4-11 cell proliferation
Method: MV-4-11 cell line was purchased from ATCC and maintained in RPMI medium supplemented with 10% fetal bovine serum and 100 U/mL of penicillin/streptomycin. One thousand MV-4-11 cells/50 μl per well were seeded in white 384-well plate, followed by treatment with indicated compounds in a 11-dose dilution series. Cell proliferation was measured using CellTiter-Glo 2.0 luciferase-based ATP detection assay (Promega, Madison, WI) following the manufacturer's protocol. Plates were then read on a TECAN Sparks multimode microplate reader. Data was analyzed using GraphPad Prism 9 (GraphPad Software, San Diego, CA) to obtain IC50 values.

IC50 [µM]	Structure (SMILES)
1.16	CCc1c2c(nn1C)C(=O)N(C)CCOc1ccc(F)cc1-c1ccc3[nH]nc(c3c1)/C=C/2 [Ex. 1, (18E)-17-ethyl-7-fluoro-13,16-dimethyl-2,12,13,16-tetrahydro-3,5-ethenodipyrazolo[3,4-f:3′,4′-j][1,4]benzoxazacyclopentadecin-14(11H)-one]
0.353	CCc1nn(C)c2c1/C=C/c1n[nH]c3ccc(cc13)-c1cc(F)ccc1OCCN(C)C2=O [Ex. 2, (18E)-17-ethyl-7-fluoro-13,15-dimethyl-2,12,13,15-tetrahydro-3,5-ethenodipyrazolo[3,4-f:3′,4′-j][1,4]benzoxazacyclopentadecin-14(11H)-one]
0.865	Cc1c2c(nn1C)C(=O)NCCOc1c(cnn1C)-c1ccc3[nH]nc(c3c1)/C=C/2 [Ex. 10, (17E)-8,15,16-trimethyl-2,11,12,15-tetrahydro-8H-3,5-ethenotripyrazolo[3,4-f:3′,4′-j:4″,3″-n][1,4]oxazacyclopentadecin-13(10H)-one]
0.0155	Cc1nn(C)c2c1/C=C/c1n[nH]c3ccc(cc13)-c1cnn(C)c1OCCCN(C)C2=O [Ex. 13, (18E)-8,13,15,17-tetramethyl-2,10,11,12,13,15-hexahydro-3,5-ethenotripyrazolo[3,4-g:3′,4′-k:4″,3″-o][1,5]oxazacyclohexadecin-14(8H)-one]
0.0178	Cc1nn(CCN2CCCC2)c2c1/C=C/c1n[nH]c3ccc(cc13)-c1cnn(C)c1OCCN(C)C2=O [Ex. 18, (17E)-8,12,16-trimethyl-14-[2-(pyrrolidin-1-yl)ethyl]-2,11,12,14-tetrahydro-8H-3,5-ethenotripyrazolo[3,4-f:3′,4′-j:4″,3″-n][1,4]oxazacyclopentadecin-13(10H)-one]
0.00052	CCc1noc2c1/C=C/c1n[nH]c3ccc(cc13)-c1cnn(C)c1OCCN(C)C2=O [Ex. 25, (17E)-16-ethyl-8,12-dimethyl-2,8,11,12-tetrahydro-3,5-etheno[1,2]oxazolo[5,4-f]dipyrazolo[3,4-j:4′,3′-n][1,4]oxazacyclopentadecin-13(10H)-one]
0.0212	CN1CCOc2c(cnn2C)-c2ccc3[nH]nc(c3c2)/C=C/c2cn(C)nc2C1=O [compound 4, (17E)-8,12,15-trimethyl-2,11,12,15-tetrahydro-8H-3,5-ethenotripyrazolo[3,4-f:3′,4′-j:4″,3″-n][1,4]oxazacyclopentadecin-13(10H)-one]
> 10	CCc1c2c(nn1C)C(=O)N(C)CCOc1ccc(F)cc1-c1cc(Cl)c3[nH]nc(c3c1)/C=C/2 [compound 5, (18E)-21-chloro-17-ethyl-7-fluoro-13,16-dimethyl-2,12,13,16-tetrahydro-3,5-ethenodipyrazolo[3,4-f:3′,4′-j][1,4]benzoxazacyclopentadecin-14(11H)-one]
< 0.0002	CCn1nc(C)c2c1C(=O)N(C)CCOc1c(cnn1C)-c1ccc3[nH]nc(c3c1)/C=C/2 [compound 11, (17E)-14-ethyl-8,12,16-trimethyl-2,11,12,14-tetrahydro-8H-3,5-ethenotripyrazolo[3,4-f:3′,4′-j:4″,3″-n][1,4]oxazacyclopentadecin-13(10H)-one]
0.385	Cc1nn(C)c2c1/C=C/c1n[nH]c3ccc(cc13)-c1cnn(C)c1OCCOCCN(C)C2=O [compound 14, (15E)-3,10,12,14-tetramethyl-5,6,9,10,12,18-hexahydro-3H-19,21-ethenotripyrazolo[3,4-i:3′,4′-m:4″,3″-q][1,4,7]dioxazacyclooctadecin-11(8H)-one]
< 0.0002	[2H]C([2H])([2H])N1CCOc2c(cnn2C)-c2ccc3[nH]nc(c3c2)/C=C/c2c(CC)nn(C([2H])([2H])[2H])c2C1=O [compound 21, (17E)-16-ethyl-8-methyl-12,14-bis[(^2H3)methyl]-2,11,12,14-tetrahydro-8H-3,5-ethenotripyrazolo[3,4-f:3′,4′-j:4″,3″-n][1,4]oxazacyclopentadecin-13(10H)-one]

Reference: patent US20260070924A1, “INDAZOLE MACROCYCLES AND THEIR USE” (BLOSSOMHILL THERAPEUTICS, INC., priority 2022, published 2026)
